The data set in a line: Spectroscopic measurements (absorption, emission, quantum yield, extinction coefficient). In kind it is physicochemical.
[1] abbreviates: absorption maximum, BDNCA library.
The mark [2] stands for this setting: difference of emission and absorption maxima.
Setting [3] is: extinction coefficient, BDNCA library; in M-1 cm-1 (unit assumed).
Where [4] appears, read: fluorescence emission maximum, BDNCA library.
[5] abbreviates: BDNCA library, difference emission minus absorption.
Setting [6] is: BDNCA library, extinction coefficient; in M-1 cm-1 (unit assumed).
Setting [7] is: BDNCA library, fluorescence emission.

As to `CC1=CC(/C=C/c2cccc(B(O)O)c2)=[N+]2C1=C(c1ccc(NC(=O)CCl)cc1)c1cccn1[B-]2(F)F` [BDNCA-404], under setting [1], the Abs amounted to 556 nm. Besides, the Flu-Abs under setting [2] is on record as 18. Also, the ε under setting [3] is listed as 18,124. This compound gave a Flu under setting [4] of 574. The “Qunt. Yield” value (quantum yield, BDNCA library) is on record as 0.03.

With `CC1=CC(/C=C/c2c(Br)ccc3c2OCO3)=[N+]2C1=C(c1ccc(NC(=O)CCl)cc1)c1cccn1[B-]2(F)F` [BDNCA-262], the “Qunt. Yield” value (BDNCA library) came out at 0.07. This compound showed an Abs (BDNCA library, absorption) of 561 nm. Further, the Flu-Abs under setting [5] is given as 21. Further, under setting [6], the ε is recorded as 68,924. Besides, the Flu under setting [7] turned out to be 582.

`COc1ccc(Oc2ccc(/C=C/c3cc(C)c4n3[B-](F)(F)[N+]3=CC=CC3=C4c3ccc(NC(=O)CCl)cc3)cc2)cc1` [BDNCA-178]: the “Qunt. Yield” value (BDNCA library) came out at 0.09. Moreover, the Abs (BDNCA library, absorption) came out at 563 nm. This compound also returned a Flu-Abs under setting [5] of 26. Also, the ε under setting [6] is 61,785. Also, the Flu under setting [7] is reported as 589.

Regarding `CC1=CC(/C=C/c2nccn2C)=[N+]2C1=C(c1ccc(NC(=O)CCl)cc1)c1cccn1[B-]2(F)F` [BDNCA-72], the “Qunt. Yield” value (BDNCA library) is listed as 0.02. Also, the Abs (BDNCA library, absorption) is 573 nm. The Flu-Abs under setting [5] stood at 45. For the same compound, under setting [6], the ε is 17,849. Under setting [7], this compound returned a Flu of 618.

The compound `CSc1ccccc1/C=C/C1=[N+]2C(=C(c3ccc(NC(=O)CCl)cc3)c3cccn3[B-]2(F)F)C(C)=C1` [BDNCA-333] returned an Abs under setting [1] of 560 nm. Under setting [2], the Flu-Abs is 26. The ε under setting [3] was 63,707. Under setting [4], this compound gave a Flu of 586. The “Qunt. Yield” value (quantum yield, BDNCA library) is reported as 0.12.

Turning to `COc1ccc(/C=C/c2cc(C)c3n2[B-](F)(F)[N+]2=CC=CC2=C3c2ccc(NC(=O)CCl)cc2)c(Br)c1O` [BDNCA-261], where the note is “BDNCA library”, the “Qunt. Yield” value is recorded as 0.01. Besides, the Abs (BDNCA library, absorption) stood at 567 nm. Also, the Flu-Abs under setting [5] is listed as 29. Besides, the ε under setting [6] is given as 49,703. This compound came in with a Flu under setting [7] of 596.

Turning to `COc1cc(/C=C/C2=[N+]3C(=C(c4ccc(NC(=O)CCl)cc4)c4cccn4[B-]3(F)F)C(C)=C2)cc(Cl)c1OC` [BDNCA-294], for the setting “BDNCA library”, the “Qunt. Yield” value is recorded as 0.14. For the setting “BDNCA library, absorption”, the Abs was determined as 560 nm. The compound also had a Flu-Abs under setting [5] of 21. Moreover, under setting [6], the ε is listed as 63,158. Moreover, the Flu under setting [7] is listed as 581.

Regarding `CC1=CC(/C=C/c2cccc(I)c2)=[N+]2C1=C(c1ccc(NC(=O)CCl)cc1)c1cccn1[B-]2(F)F` [BDNCA-303], under “BDNCA library”, the “Qunt. Yield” value was determined as 0.12. For the same compound, the Abs (BDNCA library, absorption) was 556 nm. The Flu-Abs under setting [5] worked out at 19. Moreover, the ε under setting [6] is listed as 70,847. Under setting [7], the Flu was 575.

With `COc1ccc(/C=C/C2=[N+]3C(=C(c4ccc(NC(=O)CCl)cc4)c4cccn4[B-]3(F)F)C(C)=C2)cc1OC` [BDNCA-62], the “Qunt. Yield” value (BDNCA library) is given as 0.08. Also, where the note is “BDNCA library, absorption”, the Abs turned out to be 570 nm. Under setting [5], this compound had a Flu-Abs of 48. Also, the ε under setting [6] is on record as 38,169. Under setting [7], this compound returned a Flu of 618.

For `CC1=CC(/C=C/c2ccccc2C)=[N+]2C1=C(c1ccc(NC(=O)CCl)cc1)c1cccn1[B-]2(F)F` [BDNCA-143], the “Qunt. Yield” value (BDNCA library) is 0.13. This compound also showed an Abs (BDNCA library, absorption) of 555 nm. Besides, under setting [5], the Flu-Abs came out at 22. The ε under setting [6] is listed as 50,801. For the same compound, the Flu under setting [7] amounted to 577.

Turning to `CC1=CC(/C=C/c2ccc(Cl)cc2)=[N+]2C1=C(c1ccc(NC(=O)CCl)cc1)c1cccn1[B-]2(F)F` [BDNCA-12], for the setting “BDNCA library”, the “Qunt. Yield” value was determined as 0.10. In addition, under “BDNCA library, absorption”, the Abs amounted to 557 nm. The Flu-Abs under setting [5] worked out at 19. For the same compound, the ε under setting [6] is given as 49,428. Under setting [7], the Flu amounted to 576.

In the case of `CC1=CC(/C=C/c2cccc(Oc3ccccc3)c2)=[N+]2C1=C(c1ccc(NC(=O)CCl)cc1)c1cccn1[B-]2(F)F` [BDNCA-20], for the setting “BDNCA library”, the “Qunt. Yield” value is recorded as 0.11. The compound also registered an Abs (BDNCA library, absorption) of 556 nm. The compound further came in with a Flu-Abs under setting [5] of 20. In addition, under setting [6], the ε is reported as 51,625. The compound further gave a Flu under setting [7] of 576.
